Experimental data as given in patent US20140296248A1, “METHODS AND COMPOSITIONS FOR PREDICTING RESISTANCE TO ANTICANCER TREATMENT” (Stichting het Nederlands Kanker Instiuut-Antoni van …, priority 2011, published 2014).
“Also recorded” adds a separate entry of the source.

Key:
[1] = tested on: SK-CO-1 colorectal cancer cells (KRASV12); test: Long-term colony formation assay in SK-CO-1 cells; assay type: cell-based, human; details: for effect of recombinant TGFβ on response of SK-CO-1 cells to AZD6244: TGFβ plus AZD6244, TGFβ-dosage dependent
Experimental: (§1) Cells were seeded into 6-well plates (2-5×10^4 cells/well) and cultured both in the absence and presence of drugs as indicated. More details are described in Huang et al., 2009 (Huang et al., 2009). All knockdown and overexpression experiments were done by retroviral or lentiviral infection. All relevant assays were performed independently at least three times.

[2] = tested on: ERK signaling; test: ERK signaling in MED12-suppressed cancer cells in presence of drugs; assay type: cell-based, human
Experimental: The cells were fixed, stained and photographed after 10 (untreated) or 28 days (treated). […] The cells were fixed, stained and photographed after 14 (untreated) or 28 days (treated). […] G) Colony formation assay of Huh-7 cells expressing pLKO control or shMED12 vectors (#4 and #5) were cultured in 2 μM sorafenib. The cells were fixed, stained and photographed after 14 (untreated) or 21 days (treated). […] Huh-7 cells expressing pLKO control or shMED12 vectors were grown in the absence or presence of 4 μM sorafenib for 6 hours and the cell lysates were harvested for western blotting analysis.

[3] = tested on: H3122 cells (EML4-ALK NSCLC); test: Long-term colony formation / cell proliferation assay in H3122 cells; assay type: cell-based, human; details: for effect of recombinant TGFβ on crizotinib response of H3122 cells: TGFβ in combination with crizotinib, TGFβ-dosage dependent
Experimental: (§2) Single cell suspensions of the lung cancer cell lines were seeded into 6-well plates (2×10^4 cells/well) and cultured both in the absence and presence of the ALK inhibitors. At the endpoints of colony formation assays, cells were fixed with formaldehyde, stained with crystal violet (0.1% w/v) and photographed. All relevant assays were performed independently at least three times. All knockdown and overexpression experiments were done by retroviral or lentiviral infections.
(§3) Cells were seeded into 6-well plates (2-5×10^4 cells/well) and cultured both in the absence and presence of drugs as indicated. […] All knockdown and overexpression experiments were done by retroviral or lentiviral infection. All relevant assays were performed independently at least three times.

[4] = tested on: phospho-ERK; test: Western blotting of phospho-ERK in H3122 cells; assay type: cell-based, human; details: 20 nM NVP-TAE684, 24 hours
Experimental: (A) MED12^KD cells retain phospho-ERK levels in the presence of ALK inhibitor in EML4-ALK cells. H3122 cells expressing controls (pRS or shGFP) or shMED12 vectors were gown in the absence or presence of 20 nM NVP-TAE684 for 24 hours and the cell lysates were harvested for western blotting analysis. (B) SMARCE1^KD cells have elevated phospho-ERK in EML4-ALK cells. H3122 cells expressing controls (pRS or shGFP) or shSMARCE1 vectors were gown in the absence or presence of 20 nM NVP-TAE684 for 24 hours and the cell lysates were harvested for western blotting analysis. (C) MED12^KD cells have elevated phospho-ERK levels in EGFR mutant cells.
Given that loss of MED12 or SMARCE1 causes resistance to multiple tyrosine kinase inhibitors in NSCLC cell lines, Applicants asked whether the activity of downstream components of receptor tyrosine kinase signaling is altered. ERK is a key downstream component and its phosphorylation status positively correlates with its activation that can be determined by specific antibodies against the phosphorylated form of ERK. H3122 cells were infected with two independent controls shRNA vectors or shRNAs targeting either MED12 or SMARCE1 and confirmed loss of MED12 or SMARCE1 protein by immunoblotting (FIGS. 16A and B). […]

[5] = tested on: human NSCLC cell lines that harbor EML4-ALK translocations; details: Galkin 2007; Koivunen 2008; Soda 2007; cited from earlier work
[6] = tested on: A375 melanoma cells (BRAFV600E); test: Long-term colony formation assay in A375 cells; assay type: cell-based, human; details: for drug response of MED12 knockdown A375 cells: suppression of MED12; for effect of recombinant TGFβ on response of A375 cells to PLX4032 and AZD6244: TGFβ plus PLX4032 or AZD6244, TGFβ-dosage dependent
Experimental: as §3

[7] = tested on: H1993 cells (MET-amplified NSCLC); test: Long-term colony formation assay in H1993 cells; assay type: cell-based, human
Experimental: as §2, §3

[8] = tested on: EBC-1 cells (MET-amplified NSCLC); test: Long-term colony formation assay in EBC-1 cells; assay type: cell-based, human
Experimental: as §2, §3

[9] = tested on: PC9 cells (EGFR delE746-A750 NSCLC); test: Long-term colony formation / cell proliferation assay in PC9 cells; assay type: cell-based, human
Experimental: as §2, §3

[10] = tested on: H3255 cells (EGFR L858R NSCLC); test: Long-term colony formation / cell proliferation assay in H3255 cells; assay type: cell-based, human
Experimental: as §2, §3

[11] = tested on: PC9 cells (EGFR delE746-A750 NSCLC); details: parental cells, low nanomolar concentrations; cited from earlier work
[12] = tested on: H3255 cells (EGFR L858R NSCLC); details: parental cells, low nanomolar concentrations; cited from earlier work
[13] = tested on: phospho-ERK; test: Western blotting of phospho-ERK in PC9 cells; assay type: cell-based, human; details: 25 nM gefitinib, 8 hours
Experimental: (A) Validation of independent shRNAs (in pLKO vector) targeting DABP2IP in PC9 cells. […] The cells were fixed, stained and photographed after 2 weeks (untreated) or 4 weeks (EGFR inhibitors treatment). (B) The knockdown ability of each of the shRNAs was measured by examining the DAB2IP mRNA levels by qRT-PCR. Error bars denote standard deviation (SD).
To validate the results of Applicants' focused shRNA mini-screen, Applicants individually introduced the five DAB2IP shRNAs from the TRC shRNA collection into PC9 cells (FIG. 14A). […] Next, Applicants addressed whether loss of DAB2IP affects the activity of downstream signaling components of the RAS pathway, in particular the phosphorylation (activation) status of ERK. […] Next, Applicants individually introduced the five NF1 shRNAs from the TRC shRNA collection into PC9 cells (FIG. 15A).

[14] = tested on: Huh-7 HCC cells; test: Long-term colony formation assay in Huh-7 cells; assay type: cell-based, human
Experimental: as §1

## Cn1cnc2c(F)c(Nc3ccc(Br)cc3Cl)c(C(=O)NOCCO)cc21 [AZD6244, seluteminib]
[1]; parental cells
  sensitivity of SK-CO-1 cells: highly sensitive
[1]; shMED12, 0.5 μM AZD6244
  drug response of MED12 knockdown SK-CO-1 cells: conferred resistance
[2]
  activation of ERK signaling by MED12 suppression in the presence of drug: persists

## Cc1cccc(-c2nn3c(c2-c2ccnc4ccc(C(N)=O)cc24)CCC3)n1 [LY2157299]
[3]; 1 μM LY2157299 alone, all cells
  proliferation under monotherapy, control and MED12KD H3122 cells: little effect

## COc1cc(N2CCC(N3CCN(C)CC3)CC2)ccc1Nc1ncc(Cl)c(Nc2ccccc2S(=O)(=O)C(C)C)n1 [NVP-TAE684]
[3]; shARID1A, 300 nM crizotinib or 2.5 nM NVP-TAE684
  drug response of ARID1A knockdown H3122 cells: confer resistance
[3]; shMED12 vectors, 300 nM crizotinib or 2.5 nM NVP-TAE684
  drug response of MED12 knockdown H3122 cells: confer resistance; also recorded: conferred resistance
[3]; shSMARCE1, 300 nM crizotinib or 2.5 nM NVP-TAE684
  drug response of SMARCE1 knockdown H3122 cells: confer resistance
[4]; shMED12
  ERK phosphorylation in MED12 knockdown H3122 cells in presence of inhibitor: maintained higher levels of ERK phosphorylation
[4]; shSMARCE1
  phosphorylated ERK in SMARCE1 knockdown H3122 cells in presence of inhibitor: maintained higher levels of phosphorylated ERK
[5]
  inhibition of EML4-ALK NSCLC cell lines: potently inhibit

## O=C(NOC[C@H](O)CO)c1ccc(F)c(F)c1Nc1ccc(I)cc1F [PD-0325901]
[6]
  drug response of MED12 knockdown A375 cells: conferred resistance

## CCCS(=O)(=O)Nc1ccc(F)c(C(=O)c2c[nH]c3ncc(Cl)cc23)c1F [PLX4720]
[6]
  drug response of MED12 knockdown A375 cells: conferred resistance

## C[C@@H](Oc1cc(-c2cnn(C3CCNCC3)c2)cnc1N)c1c(Cl)ccc(F)c1Cl [crizotinib]
[7]; shARID1A #1 and #2
  drug response of ARID1A knockdown H1993 cells: conferred resistance
[7]; shSMARCE1#1 and #2
  drug response of SMARCE1 knockdown H1993 cells: conferred resistance
[7]; shSMARCE1 plus SMARCE1-ND
  drug response of SMARCE1 knockdown H1993 cells reconstituted with SMARCE1-ND: restored the sensitivity
[8]; shSMARCE1#1 and #2
  drug response of SMARCE1 knockdown EBC-1 cells: conferred resistance
[8]; shSMARCE1 plus SMARCE1-ND
  drug response of SMARCE1 knockdown EBC-1 cells reconstituted with SMARCE1-ND: restored the sensitivity

## C#Cc1cccc(Nc2ncnc3cc(OCCOC)c(OCCOC)cc23)c1 [erlotinib]
[9]; shDAB2IP#1 and #3, 50 nM
  drug response of DAB2IP knockdown PC9 cells: conferred resistance
[9]; shNF1#2 and #5, 50 nM
  drug response of NF1 knockdown PC9 cells: conferred resistance
[10]; pRS and shGFP control cells
  drug response of control H3255 cells: effectively eradicated
[10]; shMED12
  drug response of MED12 knockdown H3255 cells: insensitive
[11]
  sensitivity of PC9 cells: exquisitely sensitive
[12]
  sensitivity of H3255 cells: exquisitely sensitive

## COc1cc2ncnc(Nc3ccc(F)c(Cl)c3)c2cc1OCCCN1CCOCC1 [gefitinib]
[13]
  phosphorylation of ERK in shDAB2IP PC9 cells treated with drug: maintained
[2]
  activation of ERK signaling by MED12 suppression in the presence of drug: persists

## CNC(=O)c1cc(Oc2ccc(NC(=O)Nc3ccc(Cl)c(C(F)(F)F)c3)cc2)ccn1 [sorafenib]
[14]; parental cells
  sensitivity of Huh-7 cells: sensitive
[14]; shMED12, 2 μM sorafenib
  drug response of MED12 knockdown Huh-7 cells: became resistant
[2]
  activation of ERK signaling by MED12 suppression in the presence of drug: persists

## TGFβ
[3]
  effect of recombinant TGFβ on crizotinib response of H3122 cells: continued to proliferate
[3]; listed as Recombinant TGFβ
  effect of recombinant TGFβ on crizotinib response of H3122 cells: leads to resistance
[9]; TGFβ plus EGFR inhibitors
  effect of recombinant TGFβ on response of PC9 cells to EGFR inhibitors: conferred resistance
[10]; TGFβ plus EGFR inhibitors
  effect of recombinant TGFβ on response of H3255 cells to EGFR inhibitors: conferred resistance
[6]
  effect of recombinant TGFβ on response of A375 cells to PLX4032 and AZD6244: dosage dependent resistance
[6]; listed as Recombinant TGFβ
  effect of recombinant TGFβ on response of A375 cells to PLX4032 and AZD6244: leads to resistance
[6]; TGFβ treatment alone
  proliferation of A375 cells, recombinant TGFβ alone: growth inhibition
[1]
  effect of recombinant TGFβ on response of SK-CO-1 cells to AZD6244: dosage dependent resistance
[1]; listed as Recombinant TGFβ
  effect of recombinant TGFβ on response of SK-CO-1 cells to AZD6244: leads to resistance
[14]; TGFβ treatment alone
  proliferation of Huh-7 cells, recombinant TGFβ alone: growth inhibition
